Data taken from ChEMBL document CHEMBL5131467, “Multivalent peptide dendrimers inhibit the fusion of viral-cellular membranes and the cellular NF-κB signaling pathway” (Eur J Med Chem, 2022).
Where a SMILES comes first, the peptide text is derived from it. Bridges are numbered along the chain shown (N, C = ends). Roman numbers before positions name the chains, in order. Side-chain parts run from the residue outwards. [ ]: non-standard residue; d: D form. The star is where a group is joined. ξ: configuration not given here. Phenylacetyl(4-Ph) = O=C(Cc1ccc(-c2ccccc2)cc1)*; Acetyl(2-naphthyl) = O=C(Cc1ccc2ccccc2c1)*; Fmoc = O=C(OCC1c2ccccc2-c2ccccc21)*; Palmitoyl = CCCCCCCCCCCCCCCC(=O)*; ξW = NC(Cc1c[nH]c2ccccc12)C(=O)O; Lauroyl = CCCCCCCCCCCC(=O)*; Nonanoyl = CCCCCCCCC(=O)*; Octanoyl = CCCCCCCC(=O)*; ξK = NCCCCC(N)C(=O)O

Assays:
[1] = test system: Influenza A virus; test: Antiviral activity against Influenza A virus (A/Puerto Rico/8/1934(H1N1)) infected in MDCK cells assessed as reduction in virus induced cytopathic effect pre-treated with virus followed by cell infection for 1 hr by MTT assay; format: functional, organism-based
[2] = Cytotoxicity against MDCK cells incubated for 1 hr by MTT assay; format: toxicity, cell-based, Canis lupus familiaris; details: dog
[3] = Cytotoxicity against MDCK cells by CCK-8 assay; format: toxicity, cell-based, Canis lupus familiaris; details: dog
[4] = test system: Influenza A virus; test: Antiviral activity against Influenza A virus (A/Puerto Rico/8/1934(H1N1)) infected in MDCK cells assessed as reduction in virus induced cytopathic effect pretreated with compound incubated for 1 hrs by MTT assay; format: functional, organism-based
[5] = test system: Influenza A virus; test: Antiviral activity against Influenza A virus (A/Puerto Rico/8/1934(H1N1)) infected in MDCK cells assessed as reduction in virus induced cytopathic effect during infection incubated for 1 hr by MTT assay; format: functional, organism-based
[6] = test system: Influenza A virus; test: Antiviral activity against Influenza A virus (A/Puerto Rico/8/1934(H1N1)) infected in MDCK cells assessed as reduction in virus induced cytopathic effect after infection incubated for 1 hr by MTT assay; format: functional, organism-based
[7] = Selectivity index, ratio of CC50 for MDCK cells to IC50 antiviral activity against Influenza A virus (A/Puerto Rico/8/1934(H1N1)) infected in MDCK cells assessed as reduction in virus induced cytopathic effect pre-treated with virus; format: toxicity, cell-based; details: dog, read-out: Selectivity Index

| Compound | IC50 [1] [nM] | CC50 at 1 h [2] [nM] | CC50 [3] [nM] | IC50 [4] [nM] | IC50 [5] [nM] | IC50 [6] [nM] | selectivity ratio [7] |
| --- | --- | --- | --- | --- | --- | --- | --- |
| NCCCC[C@H](NC(=O)[C@H](Cc1c[nH]c2ccccc12)NC(=O)[C@H](CCCCN)NC(=O)[C@H](CCCCN)NC(=O)Cc1ccc2ccccc2c1)C(=O)O ({Acetyl(2-naphthyl)}-KKWK-OH) | 4040 | > 200000 | 200000 |  |  |  |  |
| NCCCC[C@H](NC(=O)OCC1c2ccccc2-c2ccccc21)C(=O)N[C@@H](Cc1c[nH]c2ccccc12)C(=O)N[C@@H](CCCCN)C(=O)N[C@@H](CCCCN)C(=O)NCCCC[C@H](NC(=O)[C@H](CCCCN)NC(=O)[C@H](CCCCN)NC(=O)[C@H](Cc1c[nH]c2ccccc12)NC(=O)[C@H](CCCCN)NC(=O)OCC1c2ccccc2-c2ccccc21)C(=O)NCCCC[C@H](NC(=O)[C@H](CCCCNC(=O)[C@H](CCCCN)NC(=O)[C@H](CCCCN)NC(=O)[C@H](Cc1c[nH]c2ccccc12)NC(=O)[C@H](CCCCN)NC(=O)OCC1c2ccccc2-c2ccccc21)NC(=O)[C@H](CCCCN)NC(=O)[C@H](CCCCN)NC(=O)[C@H](Cc1c[nH]c2ccccc12)NC(=O)[C@H](CCCCN)NC(=O)OCC1c2ccccc2-c2ccccc21)C(=O)NCC(=O)O (I: Fmoc-KWKKK([Lys-Lys-Trp-Lys-Fmoc])KG-OH / II: Fmoc-KWKKK([Lys-Lys-Trp-Lys-Fmoc]); amide I:6-II:C) | 620 | 11700 |  | 470 | 1160 | 5000 | 18.8 |
| CCCCCCCCCCCCCCCC(=O)N[C@@H](CCCCN)C(=O)N[C@@H](CCCCN)C(=O)N[C@@H](Cc1c[nH]c2ccccc12)C(=O)N[C@@H](CCCCN)C(=O)NCCCC[C@H](NC(=O)[C@H](CCCCN)NC(=O)[C@H](Cc1c[nH]c2ccccc12)NC(=O)[C@H](CCCCN)NC(=O)[C@H](CCCCN)NC(=O)CCCCCCCCCCCCCCC)C(=O)NCCCC[C@H](NC(=O)[C@H](CCCCNC(=O)[C@H](CCCCN)NC(=O)[C@H](Cc1c[nH]c2ccccc12)NC(=O)[C@H](CCCCN)NC(=O)[C@H](CCCCN)NC(=O)CCCCCCCCCCCCCCC)NC(=O)[C@H](CCCCN)NC(=O)[C@H](Cc1c[nH]c2ccccc12)NC(=O)[C@H](CCCCN)NC(=O)[C@H](CCCCN)NC(=O)CCCCCCCCCCCCCCC)C(=O)NCC(=O)O (I: Palmitoyl-KKWKK([Lys-Trp-Lys-Lys-Palmitoyl])KG-OH / II: Palmitoyl-KKWKK([Lys-Trp-Lys-Lys-Palmitoyl]); amide I:6-II:C) | 100 | 1580 |  | 140 | 130 | > 5000 |  |
| NCCCC[C@H](NC(=O)Cc1ccc(-c2ccccc2)cc1)C(=O)N[C@@H](CCCCN)C(=O)N[C@@H](Cc1c[nH]c2ccccc12)C(=O)N[C@@H](CCCCN)C(=O)NCCCC[C@H](NC(=O)[C@H](CCCCN)NC(=O)[C@H](Cc1c[nH]c2ccccc12)NC(=O)[C@H](CCCCN)NC(=O)[C@H](CCCCN)NC(=O)Cc1ccc(-c2ccccc2)cc1)C(=O)NCCCC[C@H](NC(=O)[C@H](CCCCNC(=O)[C@H](CCCCN)NC(=O)[C@H](Cc1c[nH]c2ccccc12)NC(=O)[C@H](CCCCN)NC(=O)[C@H](CCCCN)NC(=O)Cc1ccc(-c2ccccc2)cc1)NC(=O)[C@H](CCCCN)NC(=O)[C@H](Cc1c[nH]c2ccccc12)NC(=O)[C@H](CCCCN)NC(=O)[C@H](CCCCN)NC(=O)Cc1ccc(-c2ccccc2)cc1)C(=O)NCC(=O)O (I: {Phenylacetyl(4-Ph)}-KKWKK([Lys-Trp-Lys-Lys-Phenylacetyl(4-Ph)])KG-OH / II: {Phenylacetyl(4-Ph)}-KKWKK([Lys-Trp-Lys-Lys-Phenylacetyl(4-Ph)]); amide I:6-II:C) | 190 | 19300 |  | 170 | 200 |  | 103 |
| NCCCC[C@H](NC(=O)[C@H](Cc1c[nH]c2ccccc12)NC(=O)[C@H](CCCCN)NC(=O)[C@@H](N)CCCCN)C(=O)NCCCC[C@H](NC(=O)[C@H](CCCCN)NC(=O)[C@H](Cc1c[nH]c2ccccc12)NC(=O)[C@H](CCCCN)NC(=O)[C@@H](N)CCCCN)C(=O)NCCCC[C@H](NC(=O)[C@H](CCCCNC(=O)[C@H](CCCCN)NC(=O)[C@H](Cc1c[nH]c2ccccc12)NC(=O)[C@H](CCCCN)NC(=O)[C@@H](N)CCCCN)NC(=O)[C@H](CCCCN)NC(=O)[C@H](Cc1c[nH]c2ccccc12)NC(=O)[C@H](CCCCN)NC(=O)[C@@H](N)CCCCN)C(=O)NCC(=O)O (I: H-KKWKK([Lys-Trp-Lys-Lys])KG-OH / II: H-KKWKK([Lys-Trp-Lys-Lys]); amide I:6-II:C) | > 5000 | 150000 |  | > 10000 | > 5000 |  |  |
| CCCCCCCCCCCCCCCC(=O)N[C@@H](CCCCN)C(=O)N[C@@H](Cc1c[nH]c2ccccc12)C(=O)N[C@@H](CCCCN)C(=O)N[C@@H](CCCCN)C(=O)NCCCC[C@H](NC(=O)[C@H](CCCCN)NC(=O)[C@H](CCCCN)NC(=O)[C@H](Cc1c[nH]c2ccccc12)NC(=O)[C@H](CCCCN)NC(=O)CCCCCCCCCCCCCCC)C(=O)NCCCC[C@H](NC(=O)[C@H](CCCCNC(=O)[C@H](CCCCN)NC(=O)[C@H](CCCCN)NC(=O)[C@H](Cc1c[nH]c2ccccc12)NC(=O)[C@H](CCCCN)NC(=O)CCCCCCCCCCCCCCC)NC(=O)[C@H](CCCCN)NC(=O)[C@H](CCCCN)NC(=O)[C@H](Cc1c[nH]c2ccccc12)NC(=O)[C@H](CCCCN)NC(=O)CCCCCCCCCCCCCCC)C(=O)NCC(=O)O (I: Palmitoyl-KWKKK([Lys-Lys-Trp-Lys-Palmitoyl])KG-OH / II: Palmitoyl-KWKKK([Lys-Lys-Trp-Lys-Palmitoyl]); amide I:6-II:C) | 190 | 670 |  | 170 | 170 | > 5000 |  |
| CCCCCCCCCCCC(=O)N[C@@H](CCCCN)C(=O)N[C@@H](CCCCN)C(=O)N[C@@H](Cc1c[nH]c2ccccc12)C(=O)N[C@@H](CCCCN)C(=O)NCCCC[C@H](NC(=O)[C@H](CCCCN)NC(=O)[C@H](Cc1c[nH]c2ccccc12)NC(=O)[C@H](CCCCN)NC(=O)[C@H](CCCCN)NC(=O)CCCCCCCCCCC)C(=O)NCCCC[C@H](NC(=O)[C@H](CCCCNC(=O)[C@H](CCCCN)NC(=O)[C@H](Cc1c[nH]c2ccccc12)NC(=O)[C@H](CCCCN)NC(=O)[C@H](CCCCN)NC(=O)CCCCCCCCCCC)NC(=O)[C@H](CCCCN)NC(=O)[C@H](Cc1c[nH]c2ccccc12)NC(=O)[C@H](CCCCN)NC(=O)[C@H](CCCCN)NC(=O)CCCCCCCCCCC)C(=O)NCC(=O)O (I: Lauroyl-KKWKK([Lys-Trp-Lys-Lys-Lauroyl])KG-OH / II: Lauroyl-KKWKK([Lys-Trp-Lys-Lys-Lauroyl]); amide I:6-II:C) | 280 | 5470 |  | 310 | 430 | > 5000 | 19.7 |
| CCCCCCCC(=O)N[C@@H](CCCCN)C(=O)N[C@@H](CCCCN)C(=O)N[C@@H](Cc1c[nH]c2ccccc12)C(=O)N[C@@H](CCCCN)C(=O)NCCCC[C@H](NC(=O)[C@H](CCCCN)NC(=O)[C@H](Cc1c[nH]c2ccccc12)NC(=O)[C@H](CCCCN)NC(=O)[C@H](CCCCN)NC(=O)CCCCCCC)C(=O)NCCCC[C@H](NC(=O)[C@H](CCCCNC(=O)[C@H](CCCCN)NC(=O)[C@H](Cc1c[nH]c2ccccc12)NC(=O)[C@H](CCCCN)NC(=O)[C@H](CCCCN)NC(=O)CCCCCCC)NC(=O)[C@H](CCCCN)NC(=O)[C@H](Cc1c[nH]c2ccccc12)NC(=O)[C@H](CCCCN)NC(=O)[C@H](CCCCN)NC(=O)CCCCCCC)C(=O)NCC(=O)O (I: Octanoyl-KKWKK([Lys-Trp-Lys-Lys-Octanoyl])KG-OH / II: Octanoyl-KKWKK([Lys-Trp-Lys-Lys-Octanoyl]); amide I:6-II:C) | 570 | 8560 |  | 420 | 640 | > 5000 | 15 |
| CCCCCCCCC(=O)NC(CCCCN)C(=O)NC(Cc1c[nH]c2ccccc12)C(=O)NC(CCCCN)C(=O)NC(CCCCN)C(=O)N[C@@H](CCCCNC(=O)[C@H](CCCCN)NC(=O)[C@H](CCCCN)NC(=O)[C@H](Cc1c[nH]c2ccccc12)NC(=O)[C@H](CCCCN)NC(=O)CCCCCCCC)C(=O)NCCCC[C@H](NC(=O)[C@H](CCCCNC(=O)[C@H](CCCCN)NC(=O)[C@H](CCCCN)NC(=O)[C@H](Cc1c[nH]c2ccccc12)NC(=O)[C@H](CCCCN)NC(=O)CCCCCCCC)NC(=O)[C@H](CCCCN)NC(=O)[C@H](CCCCN)NC(=O)[C@H](Cc1c[nH]c2ccccc12)NC(=O)[C@H](CCCCN)NC(=O)CCCCCCCC)C(=O)NCC(=O)O (stereo partly drawn) (I: Nonanoyl-KWKKK([Lys-Lys-Trp-Lys-Nonanoyl])KG-OH / II: Nonanoyl-[ξK][ξW][ξK][ξK]K([Lys-Lys-Trp-Lys-Nonanoyl]); amide I:6-II:C) | 770 | 3480 |  | 580 | 1480 | > 5000 | 4.5 |
| CCCCCCCCCCCC(=O)N[C@@H](CCCCN)C(=O)N[C@@H](Cc1c[nH]c2ccccc12)C(=O)N[C@@H](CCCCN)C(=O)N[C@@H](CCCCN)C(=O)NCCCC[C@H](NC(=O)[C@H](CCCCN)NC(=O)[C@H](CCCCN)NC(=O)[C@H](Cc1c[nH]c2ccccc12)NC(=O)[C@H](CCCCN)NC(=O)CCCCCCCCCCC)C(=O)NCCCC[C@H](NC(=O)[C@H](CCCCNC(=O)[C@H](CCCCN)NC(=O)[C@H](CCCCN)NC(=O)[C@H](Cc1c[nH]c2ccccc12)NC(=O)[C@H](CCCCN)NC(=O)CCCCCCCCCCC)NC(=O)[C@H](CCCCN)NC(=O)[C@H](CCCCN)NC(=O)[C@H](Cc1c[nH]c2ccccc12)NC(=O)[C@H](CCCCN)NC(=O)CCCCCCCCCCC)C(=O)NCC(=O)O (I: Lauroyl-KWKKK([Lys-Lys-Trp-Lys-Lauroyl])KG-OH / II: Lauroyl-KWKKK([Lys-Lys-Trp-Lys-Lauroyl]); amide I:6-II:C) | 340 | 1880 |  | 380 | 170 | > 5000 | 5.5 |
